Like-named read-outs stand apart in the source and are kept apart here.
Assays:
[1] = molecular target: human recombinant BACE2 (Homo sapiens (Human), UniProt Q9Y5Z0); assay: In vitro enzymatic BACE2 FRET assay; assay type: biochemical; settings: read-out: IC50 IP (μM) BACE2 enzyme
Outline: (§1)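 FRET cleavage assay using Ni-NTA-purified recombinant protease and 50 nM quenched peptide substrate, 1 h. Stopped by neutralising with Tris; fluorescence at 488/590 nm.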

[2] = molecular target: human recombinant BACE1 (Homo sapiens (Human), UniProt P56817); assay: In vitro enzymatic BACE1 FRET assay; assay type: biochemical; settings: read-out: IC50 IP (μM) BACE1 enzyme
Outline: as §1

[3] = molecular target: Recombinant Cat D (Homo sapiens (Human), UniProt P07339); assay: In vitro enzymatic Cathepsin D (Cat D) FRET assay; assay type: biochemical; settings: read-out: IC50 IP (μM) CatD
Outline: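 Cleavage of a 20 nM fluorophore/quencher peptide by CHO-expressed recombinant Cat D proceeded for one hour at pH 3.5 (0.05 M citrate, 5 mM CHAPS, 10% DMSO final). Tris addition neutralized the pH to end the reaction. Fluorescence was then measured (ex 500 nm/em 580 nm).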

[4] = system: Aβ40 in conditioned medium of cells stably expressing Amyloid Precursor Protein (APP); assay: In vitro BACE-1 cell-based assay (Aβ40 sandwich ELISA); settings: read-out: IC50 IP (μM) BACE1 cell
Outline: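 APP-stable cells, pre-cultured 24 h at 37° C in DMEM/10% FBS, were treated 24 h with compound in a 10-point series starting at 100 μM or 10 μM (0.1% DMSO final). Secreted Aβ40 in conditioned medium was measured by pAb40/biotin-6E10 sandwich ELISA with Europium time-resolved fluorescence; IC50 from percent inhibition versus concentration.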

Sequence of Recombinant Cat D (P07339 65-412): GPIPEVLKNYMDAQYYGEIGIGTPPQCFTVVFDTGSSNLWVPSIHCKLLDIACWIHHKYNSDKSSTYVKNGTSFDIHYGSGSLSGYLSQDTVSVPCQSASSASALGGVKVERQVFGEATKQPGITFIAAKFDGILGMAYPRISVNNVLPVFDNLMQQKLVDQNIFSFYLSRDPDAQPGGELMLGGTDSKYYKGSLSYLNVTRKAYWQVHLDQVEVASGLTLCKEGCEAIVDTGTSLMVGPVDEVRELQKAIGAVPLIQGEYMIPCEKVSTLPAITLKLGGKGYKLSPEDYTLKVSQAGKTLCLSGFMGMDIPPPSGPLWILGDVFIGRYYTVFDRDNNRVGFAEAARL
Sequence of human recombinant BACE1 (P56817 46-501): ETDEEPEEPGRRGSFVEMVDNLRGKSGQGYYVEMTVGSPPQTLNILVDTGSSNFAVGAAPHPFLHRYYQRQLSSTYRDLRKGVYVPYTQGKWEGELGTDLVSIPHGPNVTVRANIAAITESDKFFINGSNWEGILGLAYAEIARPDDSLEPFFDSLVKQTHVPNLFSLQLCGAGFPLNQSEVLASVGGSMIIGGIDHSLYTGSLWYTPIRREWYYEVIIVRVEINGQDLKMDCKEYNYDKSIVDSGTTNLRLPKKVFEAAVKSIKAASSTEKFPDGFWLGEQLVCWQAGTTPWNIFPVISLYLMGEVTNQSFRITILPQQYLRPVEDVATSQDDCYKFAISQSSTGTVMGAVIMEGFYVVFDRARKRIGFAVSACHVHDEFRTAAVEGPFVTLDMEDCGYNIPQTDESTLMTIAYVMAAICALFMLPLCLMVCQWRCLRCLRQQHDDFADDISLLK
Sequence of human recombinant BACE2 (Q9Y5Z0 63-518): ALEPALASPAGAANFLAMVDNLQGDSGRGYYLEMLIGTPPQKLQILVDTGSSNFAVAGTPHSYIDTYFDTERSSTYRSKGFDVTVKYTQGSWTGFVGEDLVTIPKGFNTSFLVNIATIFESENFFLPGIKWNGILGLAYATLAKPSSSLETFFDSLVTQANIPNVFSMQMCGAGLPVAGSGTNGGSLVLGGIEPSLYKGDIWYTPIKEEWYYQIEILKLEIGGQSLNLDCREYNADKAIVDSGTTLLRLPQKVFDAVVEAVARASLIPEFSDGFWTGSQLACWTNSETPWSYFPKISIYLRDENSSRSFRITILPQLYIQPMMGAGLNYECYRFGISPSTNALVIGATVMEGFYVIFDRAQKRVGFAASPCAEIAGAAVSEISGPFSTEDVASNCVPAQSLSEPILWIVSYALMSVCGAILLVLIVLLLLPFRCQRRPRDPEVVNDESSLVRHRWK

IC50 [1] [µM]	IC50 [2] [µM]	IC50 [3] [µM]	IC50 [4] [µM]	IC50 ([1]; BACE2 FRET enzyme assay) [µM]	IC50 ([2]; BACE1 FRET enzyme assay) [µM]	IC50 ([3]; Cathepsin D FRET enzyme assay) [µM]	IC50 ([4]; BACE1 cell-based assay) [µM]	Structure (SMILES)
0.0286	0.00276	1010	0.00853	–	–	–	–	Cc1nc(OCc2ncco2)cnc1C(=O)Nc1cc(F)c(F)c([C@@]2(C)N=C(N)S[C@@]3(C(F)F)C[C@@H]23)c1 [Example 860, N-(3-((1S,5S,6S)-3-amino-1-(difluoromethyl)-5-methyl-2-thia-4-azabicyclo[4.1.0]hept-3-en-5-yl)-4,5-difluorophenyl)-3-methyl-5-(1,3-oxazol-2-ylmethoxy)-2-pyrazinecarboxamide]
–	–	–	–	0.137	0.0416	> 400	0.0264	COc1cnc2c(Nc3ccc(F)c([C@@]4(CF)N=C(N)S[C@H]5CC54)c3)ncnc2c1 (stereo in doubt) [Example 88, N-(3-((1S,5S,6S)-3-amino-5-(fluoromethyl)-2-thia-4-azabicyclo[4.1.0]hept-3-en-5-yl)-4-fluorophenyl)-7-methoxypyrido[3,2-d]pyrimidin-4-amine]
< 0.00203	0.000719	846	0.0149	–	–	–	–	C[C@]1(c2cc(NC(=O)c3ccc(Cl)cn3)cc(F)c2F)N=C(N)S[C@@]2(S(C)(=O)=O)C[C@H]21 [Example 742, N-(3-((1R,5S,6S)-3-amino-5-methyl-1-(methylsulfonyl)-2-thia-4-azabicyclo[4.1.0]hept-3-en-5-yl)-4,5-difluorophenyl)-5-chloro-2-pyridinecarboxamide]
0.0602	0.00112	22.8	0.00323	–	–	–	–	CN(C)C(=O)/C=C/[C@]12C[C@H]1[C@@](CF)(c1cc(Nc3ncnc4cc(OCc5ncco5)cnc34)ccc1F)N=C(N)S2 [Example 775, (2E)-3-((1R,5S,6S)-3-amino-5-(fluoromethyl)-5-(2-fluoro-5-((7-(1,3-oxazol-2-ylmethoxy)pyrido[3,2-d]pyrimidin-4-yl)amino)phenyl)-2-thia-4-azabicyclo[4.1.0]hept-3-en-1-yl)-N,N-dimethyl-2-propenamide]
0.0257	0.000898	972	0.0175	–	–	–	–	C[C@]1(c2cc(NC(=O)c3ccc(OCc4ncco4)cn3)cc(F)c2F)N=C(N)S[C@@]2(S(C)(=O)=O)C[C@H]21 [Example 745, N-(3-((1R,5S,6S)-3-amino-5-methyl-1-(methylsulfonyl)-2-thia-4-azabicyclo[4.1.0]hept-3-en-5-yl)-4,5-difluorophenyl)-5-(1,3-oxazol-2-ylmethoxy)-2-pyridinecarboxamide]
0.00387	0.0014	> 400	0.00308	–	–	–	–	C#C[C@H](C)Oc1cnc2c(Nc3cc(F)c(F)c([C@@]4(C)N=C(N)S[C@@]5(C(=O)N(C)C)C[C@H]54)c3)nccc2n1 [Example 925, (1S,5S,6S)-3-amino-5-(2,3-difluoro-5-((2-(((1S)-1-methyl-2-propyn-1-yl)oxy)pyrido[3,4-b]pyrazin-5-yl)amino)phenyl)-N,N,5-trimethyl-2-thia-4-azabicyclo[4.1.0]hept-3-ene-1-carboxamide]
0.0524	0.00106	138	0.0352	–	–	–	–	C[C@]1(c2cc(NC(=O)c3ccc(OCC(F)(F)F)cn3)cc(F)c2F)N=C(N)S[C@@]2(C(=O)N3CCCC3)C[C@H]21 [Example 699, N-(3-((1S,5S,6S)-3-amino-5-methyl-1-(1-pyrrolidinylcarbonyl)-2-thia-4-azabicyclo[4.1.0]hept-3-en-5-yl)-4,5-difluorophenyl)-5-(2,2,2-trifluoroethoxy)-2-pyridinecarboxamide]
0.459	0.00741	1140	0.0541	–	–	–	–	COC[C@]12C[C@H]1[C@@](C)(c1cc(NC(=O)c3cnc(OCC4CCO4)cn3)cc(F)c1F)N=C(N)S2 (stereo partly drawn) [Example 1029, N-(3-((1S,5S,6S)-3-amino-1-(methoxymethyl)-5-methyl-2-thia-4-azabicyclo[4.1.0]hept-3-en-5-yl)-4,5-difluorophenyl)-5-(oxetan-2-ylmethoxy)pyrazine-2-carboxamide]
0.0436	0.000695	936	0.00254	–	–	–	–	C#C[C@H](C)Oc1cnc(C(=O)Nc2cc(F)c(F)c([C@@]3(C)N=C(N)S[C@@]4(COC)C[C@H]43)c2)cn1 [Example 1009, N-(3-((1S,5S,6S)-3-amino-1-(methoxymethyl)-5-methyl-2-thia-4-azabicyclo[4.1.0]hept-3-en-5-yl)-4,5-difluorophenyl)-5-(((1S)-1-methyl-2-propyn-1-yl)oxy)-2-pyrazinecarboxamide]
0.00516	0.000384	72.1	0.00108	–	–	–	–	C#CCOc1cnc(C(=O)Nc2ccc(F)c([C@@]3(C)N=C(N)S[C@@]4(C(=O)N5CCOCC5)C[C@H]43)c2)cn1 [Example 1005, N-(3-((1S,5S,6S)-3-amino-5-methyl-1-(morpholine-4-carbonyl)-2-thia-4-azabicyclo[4.1.0]hept-3-en-5-yl)-4-fluorophenyl)-5-(prop-2-yn-1-yloxy)pyrazine-2-carboxamide]
0.0335	0.00136	773	0.00134	–	–	–	–	C#CCOc1cnc2c(Nc3cnc(F)c([C@@]4(C)N=C(N)S[C@@]5(COC)C[C@H]54)c3)nccc2n1 [Example 848, N-(5-((1S,5S,6S)-3-amino-1-(methoxymethyl)-5-methyl-2-thia-4-azabicyclo[4.1.0]hept-3-en-5-yl)-6-fluoro-3-pyridinyl)-2-(2-propyn-1-yloxy)pyrido[3,4-b]pyrazin-5-amine]
0.00588	0.0454	844	0.0781	–	–	–	–	NC1=N[C@](CF)(c2cc(Nc3nncc4cc(Cl)cnc34)ccc2F)[C@@H]2C[C@@H]2S1 [Example 754, (1S,5S,6S)-5-(5-((3-chloropyrido[2,3-d]pyridazin-8-yl)amino)-2-fluorophenyl)-5-(fluoromethyl)-2-thia-4-azabicyclo[4.1.0]hept-3-en-3-amine]
–	–	–	–	0.00161	0.00332	> 400	0.0014	NC1=N[C@](CF)(c2cc(NC(=O)c3ccc(Cl)cn3)ccc2F)[C@@H]2C[C@]2(CO)S1 [Example 37, N-(3-((1S,5S,6S)-3-amino-5-(fluoromethyl)-1-(hydroxymethyl)-2-thia-4-azabicyclo[4.1.0]hept-3-en-5-yl)-4-fluorophenyl)-5-chloropicolinamide]
0.00602	0.000389	101	0.000398	–	–	–	–	C#CCOc1cnc(C(=O)Nc2ccc(F)c([C@@]3(C)N=C(N)S[C@@]4([C@H](O)C(F)(F)F)C[C@H]43)c2)cn1 [Example 673, N-(3-((1S,5S,6S)-3-amino-5-methyl-1-((1R)-2,2,2-trifluoro-1-hydroxyethyl)-2-thia-4-azabicyclo[4.1.0]hept-3-en-5-yl)-4-fluorophenyl)-5-(2-propyn-1-yloxy)-2-pyrazinecarboxamide]
0.709	0.548	1320	3.89	–	–	–	–	COC[C@]12C[C@H]1[C@@](C)(c1cc(NC(=O)c3ncc(O[C@H](C)c4ncco4)cc3C)cc(F)c1F)N=C(N)S2 [Example 688]
0.193	0.00178	> 400	0.00597	–	–	–	–	C[C@]1(c2cc(NC(=O)c3cnc(OCC(F)(F)C(F)F)cn3)cnc2F)N=C(N)S[C@@]2(CF)C[C@H]21 [Example 610, N-(5-((1S,5S,6S)-3-amino-1-(fluoromethyl)-5-methyl-2-thia-4-azabicyclo[4.1.0]hept-3-en-5-yl)-6-fluoro-3-pyridinyl)-5-(2,2,3,3-tetrafluoropropoxy)-2-pyrazinecarboxamide]
3.83	0.0668	1100	1.3	–	–	–	–	COC[C@]12C[C@H]1[C@@](C)(c1cc(Nc3nccc4cc(OCC(F)(F)C(F)F)cnc34)cc(F)c1F)N=C(N)S2 [Example 731, N-(3-((1S,5S,6S)-3-amino-1-(methoxymethyl)-5-methyl-2-thia-4-azabicyclo[4.1.0]hept-3-en-5-yl)-4,5-difluorophenyl)-3-(2,2,3,3-tetrafluoropropoxy)-1,7-naphthyridin-8-amine]
0.353	0.231	171	1.07	–	–	–	–	CN(C)C(=O)COc1cnc2c(Nc3cc(F)c(F)c([C@@]4(C)N=C(N)S[C@@]5(C(F)F)C[C@@H]45)c3)nccc2n1 [Example 878, 2-((5-((3-((1S,5S,6S)-3-amino-1-(difluoromethyl)-5-methyl-2-thia-4-azabicyclo[4.1.0]hept-3-en-5-yl)-4,5-difluorophenyl)amino)pyrido[3,4-b]pyrazin-2-yl)oxy)-N,N-dimethylacetamide]
–	–	–	–	0.0136	0.0198	295	0.0317	C[C@]1(c2cc(Nc3ncnc4cc(Cl)cnc34)cc(F)c2F)N=C(N)S[C@H]2C[C@H]21 [Example 34, N-(3-((1S,5S,6S)-3-amino-5-methyl-2-thia-4-azabicyclo[4.1.0]hept-3-en-5-yl)-4,5-difluorophenyl)-7-chloropyrido[3,2-d]pyrimidin-4-amine]

Source: patent US20160046618A1, “Cyclopropyl Fused Thiazin-2-Amine Compounds as Beta-Secretase Inhibitors and Methods of Use” (AMGEN INC., priority 2014, published 2016)
